Laboratory results taken from paper PMC4436313, “Novel Heparan Sulfate-Binding Peptides for Blocking Herpesvirus Entry” (PLoS ONE, 2015).
Ends that are not written are not given here.

Assays:
[1] = tested on: HCMV TB40/E-pp150-GFP adsorption to HFF cells; test: Flow cytometric analysis of attached virus; type: cell-based, Human cytomegalovirus; settings: peptide 100μM, HFF cells at 4°C, 1/2 h, then HCMV TB40/E pp150-GFP MOI 10 for 1h; GFP MFI vs PBS treated cells; 3 replicates
Method: HFF cells were grown in a 24 well dish and allowed to reach ~80% confluency. The cells were cooled to 4°C to prevent virus internalization before addition of peptide (100μM) and incubated for ½ h. Following the incubation, HCMV TB40/E pp150-GFP was added (MOI 10) at 4°C and incubated for 1h. Following the incubation, cells were removed from the wells using non-enzymatic cell stripper solution (Corning), fixed (with paraformaldehyde) and the data acquired using a BD FACS Calibur flowcytometer (BD Biosciences). The data was analyzed using FlowJo software (TreeStar).
Fig 5 Peptide p5+14 blocks adsorption of MCMV. (A) MCMV was preincubated with p5+14 peptide (100 μM) before diluting the virus/peptide to an ineffective peptide concentration (1 μM) and assayed in the plaque reduction assay as described in materials and methods. As a control, virus and peptide (100 μM) were added to cells simultaneously. […] Plaque reduction was measured in a plaque reduction assay. […] (C) Adsorption of HCMV TB40/E-pp150-GFP (MOI 10) fusion protein expressing HCMV was measured via flowcytometry in the presence of p5+14 (green), control peptide CGGY-p5G (orange) and PBS (blue). […] Inset is a scatter plot of the mean fluorescence intensity (MFI) for GFP with the line representing average of 3 replicates +/- SD for the different treatments.

MEF 10.1 cells = test: Visualization of bound biotinylated peptide by fluorescence microscopy; type: binding, Mouse; settings: biotinylated peptide 1.6 μg/mL in PBS overnight at 4°C, fixed MEF cells, Alexa Fluor 594-conjugated streptavidin
Method: Coverslips with fixed MEF cells were prepared, washed in PBS, and blocked with 1% BSA/PBS for 5 min. Following a PBS wash, the nuclei were stained using Hoechst (Life Technologies Molecular Probes, Grand Island, NY) 1:100 in H2O for 30 min at 37°C. Cells were then blocked using a casein block solution (Scytek) for 5 min, AVIDIN/Biotin blocks (VECTOR) for 20 min each at room temperature (RT) followed by a 5 min PBS wash. Biotinylated p5+14 or CGGY-p5G (control) at 1.6 μg/mL in PBS was added and incubated overnight at 4°C. Following a PBS wash Alexa Fluor 594-conjugated streptavidin (Molecular Probes) was added at a 1:200 dilution in PBS for 1h at RT. Cells were then permeabilized with 0.2% Triton X-100 (Sigma) in PBS for 10 min at RT and washed with a solution of 1% BSA in PBS for 30 min. The cells were then stained with Alexa Fluor 488-conjugated phalloidin (Molecular Probes) at a 1:100 dilution of stock in 1% BSA/PBS, for 45 min at RT to visualize actin filaments. Slides were cover-slipped using a fluorescent mounting medium (Dako) to minimize photobleaching.
Fig 2 p5+14 binding to cells is charge dependent. (A) Predicted α-helix structure of peptide p5+14 based on ITASSER modeling. (B) Biotinylated peptide p5+14 (left panel) or CGGY-p5G (right panel) was added to MEF 10.1 cells followed by addition of Alexa Fluor 594-conjugated streptavidin (red). […]

MCMV [2] = settings: for Plaque Reduction (Average from Fig 1): peptide 500 μg/ml, incubated with MEF 10.1 cells 30 min prior to MCMV (~100 pfu/well), percent reduction vs PBS-treated control, three independent experiments, at least three replicates each
Method: Peptides were screened for their ability to reduce viral infection using a plaque reduction assay. Cells were cultured in 12-well (VERO) or 24-well culture plates (MEF 10.1 and HFF). When cells reached ~80% confluence the media was removed and washed once with PBS before addition of peptide. As a control, cells were incubated with PBS alone. After a 30 min incubation with peptide in PBS, virus (~100 pfu/well for MCMV and ~30–40 pfu/well for HCMV and HSV) was added and incubated for another 90 min (HSV and HCMV) or 60 min (MCMV). Following virus incubation the peptide/virus mixture was removed and replaced with 0.75% carboxymethyl cellulose (Sigma Aldrich, St. Louis, MO) (CMC) + complete media (DMEM + P/S + L-Gln) for MCMV and HSV experiments or 0.5% agarose (Lonza, Rockland, ME) in complete media for HCMV experiments. The plates were incubated at 37° C in 5% CO2 for 4 days and when plaques began to develop, plates were stained with Coomassie stain (AMRESCO, Solon, Ohio). Due to the inability of HCMV to form distinct plaques on HAEC and ARPE-19 cells, infection in these cell types was measured by counting mCherry positive foci 14 days post infection. Plaques were counted manually using a dissection microscope. Data was analyzed using Prism 5.0 (GraphPad Software, La Jolla, CA). Data were expressed as percent infection (100 x (number of plaques after treatment/ the number of plaques in the PBS-treated wells)).
Seven synthetic peptides based on the structure of peptide p5 were screened for their ability to reduce MCMV infection in vitro (Table 1). In the initial screening assays all peptides were tested at a single concentration (500 μg/ml) using a plaque-reduction assay, in which mouse embryonic fibroblasts were incubated with the peptides for 30 min prior to the addition of virus.
(A) Peptides (500 μg/ml) with different net charges and lengths were incubated with cells 30 min prior to addition of MCMV (~100 pfu/well). Bars represent the average of the percent reduction in infection compared to PBS-treated control from three independent experiments with at least three replicates in each + SD. (B) p5+14 and CGGY-p5G (control peptide) were serially diluted and assayed in a plaque reduction assay as described in materials and methods.

[3] = Self-aggregation of peptide (data not shown); type: physicochemical
MCMV [4] = test: Heparin blockade of peptide-mediated plaque reduction; type: cell-based, murine CMV (MCMV)
Method: Peptide p5+14 (100 μM) was pre-incubated with heparin sodium salt (Acros Organics, NJ) at different concentrations for 1 h at 37°C. This heparin/peptide mix was added to the cells and incubated for 30 min at 37°C. Following the incubation, supernatant was aspirated and cells washed once with PBS to remove unbound/excess heparin or peptide. The cells were subsequently infected with ~100 pfu/well of MCMV. To test whether heparin treatment of cells interferes with virus infection, MEF 10.1 cells in a 24 well dish were pre-incubated with different concentrations of heparin for 1 hour and washed as described above. Following this pre-incubation, infection was initiated as described above. Finally to test the effect of heparin treatment on the infectivity of virus, MCMV was incubated with different concentrations of heparin for 1h before infecting cells. For all treatments, virus was removed 1h post infection and cells were overlaid with CMC. Plates were incubated for 4 days before staining and counting the plaques.
Fig 3 Soluble heparin interferes with peptide inhibition of virus infection. The effect of heparin on the activity of peptide and MCMV viral infectivity in vitro when (A) pre-incubated with the peptide (100 μM), (B) incubated with the cells before adding virus, and (C) pre-incubated with virus alone in a plaque reduction assay. […]

CGGYSGAQGAQAGQAGQAQGAQGAQAGQAGQ [CGGY-p5G, uncharged p5 variant, replaces Lys with Gly throughout; control peptide]
Fluorescent virus attached to the cell surface [1]: no reduction in fluorescence | Binding of biotinylated peptide to mouse fibroblasts (MEF 10.1 cells): did not bind

CGGYSKAQKAQAKQAKQAQKAQKAQAKQAKQ [CGGY-p5, p5 variant with N-terminal Cys residue generated to facilitate incorporation of 99mTc]
Plaque Reduction (Average from Fig 1) (MCMV [2]): ~61% | Self-aggregation [3]: prone to self-aggregation

GGGYSKAQKAQAKQAKQAQKAQKAQAKQAKQ [p5]
Plaque Reduction (Average from Fig 1) (MCMV [2]): ~53%

MPRRR RIRRR QK [G2, reference compound]
Reduction in MCMV infection at 10 μM (MCMV [2]; peptide 10 μM, plaque reduction assay, comparison p5+14 vs G2): ineffective | Inhibition of MCMV infection at 100 μM (MCMV [2]; peptide 100 μM, plaque reduction assay, comparison p5+14 vs G2): effectively inhibited MCMV infection

heparin sodium salt
Reduction of infection, heparin pre-incubated with MCMV (MCMV [4]; MCMV incubated with heparin 1 h without peptide, all heparin concentrations ≥ 2 μg/mL): > 80% | MCMV infection after pre-incubation of the cells with heparin (MCMV [4]; MEF 10.1 cells pre-incubated with heparin 1 hour and washed prior to virus addition, no peptide): did not alter MCMV infection

GGGYSRAQRAQARQARQAQRAQRAQARQARQ [p5R]
Blocking of viral infection compared to peptide p5 (MCMV [2]; from Fig 1A, 500 μg/ml, MCMV): 2 fold | Plaque Reduction (Average from Fig 1) (MCMV [2]): ~75%

GGGYSKAQKAQAKQAKQAQKAQKAQAKQAKQAQKAQKAQAKQAKQ [p5+14]
IC50 (MCMV [2]; read-out: IC50, reduction of MCMV infection, serial dilution of peptide, plaque reduction assay, MEF 10.1): 5.2 µM
